{
  "source": "PubChem BioAssay AID1845212",
  "about": "(Molecular Pharmacology Branch, DTP, NCI, 2023)",
  "system": "NCI-H719 tumor spheroids, viability",
  "assay": "Anticancer human tumor NCI-H719 cell line growth inhibition;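 further: spheroids exposed to compounds for seven days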;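 on viability, T/C: percent viability relative to DMSO vehicle control as 100%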",
  "details": "spheroids with HUVEC and MSC; for IC50: curve of first compound; for viability, T/C: stronger effect = lower value",
  "summary_of_the_method": "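Complex tumor spheroids combined malignant cells with endothelial cells and mesenchymal stem cells. DNA-damaging drugs and DNA repair inhibitors were tested alone and in combination, at half-log dilutions down from clinical Cmax (top 10 microM if Cmax unknown), 0.25% DMSO final.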",
  "data": [
    {"smiles": "Cc1cc(C)c(CNC(=O)c2cc(-c3ccc(CN4CCOCC4)cc3)cc3c2cnn3C2CCCC2)c(=O)[nH]1", "note": "+ CC[C@@]1(O)C(=O)OCc2c1cc1n(c2=O)Cc2cc3c(CN(C)C)c(O)ccc3nc2-1", "values": [
      {"measurement": "IC50", "setting": "second compound 0.003 µM", "result": 2260, "unit": "nM"},
      {"measurement": "IC50", "setting": "second compound 0.00949 µM", "result": "< 31.6", "unit": "nM"},
      {"measurement": "IC50", "setting": "second compound 0.03 µM", "result": "< 31.6", "unit": "nM"},
      {"measurement": "IC50", "setting": "second compound 0.0949 µM", "result": "< 31.6", "unit": "nM"},
      {"measurement": "IC50", "setting": "second compound 0.3 µM", "result": "< 31.6", "unit": "nM"},
      {"measurement": "viability, T/C", "setting": "second compound 0.003 µM, first compound 0.0316 µM", "result": 52.6, "unit": "%"},
      {"measurement": "viability, T/C", "setting": "second compound 0.003 µM, first compound 0.1 µM", "result": 52.9, "unit": "%"},
      {"measurement": "viability, T/C", "setting": "second compound 0.003 µM, first compound 0.316 µM", "result": 54.8, "unit": "%"},
      {"measurement": "viability, T/C", "setting": "second compound 0.003 µM, first compound 1 µM", "result": 51.6, "unit": "%"},
      {"measurement": "viability, T/C", "setting": "second compound 0.003 µM, first compound 3.16 µM", "result": 49.1, "unit": "%"},
      {"measurement": "viability, T/C", "setting": "second compound 0.003 µM, first compound 10 µM", "result": 39.2, "unit": "%"},
      {"measurement": "viability, T/C", "setting": "second compound 0.00949 µM, first compound 0.0316 µM", "result": 6.76, "unit": "%"},
      {"measurement": "viability, T/C", "setting": "second compound 0.00949 µM, first compound 0.1 µM", "result": 6.82, "unit": "%"},
      {"measurement": "viability, T/C", "setting": "second compound 0.00949 µM, first compound 0.316 µM", "result": 6.88, "unit": "%"},
      {"measurement": "viability, T/C", "setting": "second compound 0.00949 µM, first compound 1 µM", "result": 6.69, "unit": "%"},
      {"measurement": "viability, T/C", "setting": "second compound 0.00949 µM, first compound 3.16 µM", "result": 6.81, "unit": "%"},
      {"measurement": "viability, T/C", "setting": "second compound 0.00949 µM, first compound 10 µM", "result": 5.13, "unit": "%"},
      {"measurement": "viability, T/C", "setting": "second compound 0.03 µM, first compound 0.0316 µM", "result": 6.03, "unit": "%"},
      {"measurement": "viability, T/C", "setting": "second compound 0.03 µM, first compound 0.1 µM", "result": 5.75, "unit": "%"},
      {"measurement": "viability, T/C", "setting": "second compound 0.03 µM, first compound 0.316 µM", "result": 6.33, "unit": "%"},
      {"measurement": "viability, T/C", "setting": "second compound 0.03 µM, first compound 1 µM", "result": 5.99, "unit": "%"},
      {"measurement": "viability, T/C", "setting": "second compound 0.03 µM, first compound 3.16 µM", "result": 6.45, "unit": "%"},
      {"measurement": "viability, T/C", "setting": "second compound 0.03 µM, first compound 10 µM", "result": 16.3, "unit": "%"},
      {"measurement": "viability, T/C", "setting": "second compound 0.0949 µM, first compound 0.0316 µM", "result": 5.7, "unit": "%"},
      {"measurement": "viability, T/C", "setting": "second compound 0.0949 µM, first compound 0.1 µM", "result": 5.83, "unit": "%"},
      {"measurement": "viability, T/C", "setting": "second compound 0.0949 µM, first compound 0.316 µM", "result": 5.84, "unit": "%"},
      {"measurement": "viability, T/C", "setting": "second compound 0.0949 µM, first compound 1 µM", "result": 6.02, "unit": "%"},
      {"measurement": "viability, T/C", "setting": "second compound 0.0949 µM, first compound 3.16 µM", "result": 6.69, "unit": "%"},
      {"measurement": "viability, T/C", "setting": "second compound 0.0949 µM, first compound 10 µM", "result": 6.41, "unit": "%"},
      {"measurement": "viability, T/C", "setting": "second compound 0.3 µM, first compound 0.0316 µM", "result": 5.68, "unit": "%"},
      {"measurement": "viability, T/C", "setting": "second compound 0.3 µM, first compound 0.1 µM", "result": 6.37, "unit": "%"},
      {"measurement": "viability, T/C", "setting": "second compound 0.3 µM, first compound 0.316 µM", "result": 6.67, "unit": "%"},
      {"measurement": "viability, T/C", "setting": "second compound 0.3 µM, first compound 1 µM", "result": 6.18, "unit": "%"},
      {"measurement": "viability, T/C", "setting": "second compound 0.3 µM, first compound 3.16 µM", "result": 6.37, "unit": "%"},
      {"measurement": "viability, T/C", "setting": "second compound 0.3 µM, first compound 10 µM", "result": 6.13, "unit": "%"}
    ]},
    {"smiles": "COc1ccc([C@@H](O)c2cc(-c3ncnc4cc(N5CCOCC5)ccc34)c(F)cc2Cl)nn1", "note": "+ Cn1nnc2c(C(N)=O)ncn2c1=O", "values": [
      {"measurement": "IC50", "setting": "second compound 1 µM", "result": 797, "unit": "nM"},
      {"measurement": "IC50", "setting": "second compound 3.16 µM", "result": 873, "unit": "nM"},
      {"measurement": "IC50", "setting": "second compound 10 µM", "result": 1100, "unit": "nM"},
      {"measurement": "IC50", "setting": "second compound 31.6 µM", "result": 810, "unit": "nM"},
      {"measurement": "IC50", "setting": "second compound 100 µM", "result": 506, "unit": "nM"},
      {"measurement": "viability, T/C", "setting": "second compound 1 µM, first compound 0.0316 µM", "result": 80.1, "unit": "%"},
      {"measurement": "viability, T/C", "setting": "second compound 1 µM, first compound 0.1 µM", "result": 78.5, "unit": "%"},
      {"measurement": "viability, T/C", "setting": "second compound 1 µM, first compound 0.316 µM", "result": 76.6, "unit": "%"},
      {"measurement": "viability, T/C", "setting": "second compound 1 µM, first compound 1 µM", "result": 34.6, "unit": "%"},
      {"measurement": "viability, T/C", "setting": "second compound 1 µM, first compound 3.16 µM", "result": 46.3, "unit": "%"},
      {"measurement": "viability, T/C", "setting": "second compound 1 µM, first compound 10 µM", "result": 49.5, "unit": "%"},
      {"measurement": "viability, T/C", "setting": "second compound 3.16 µM, first compound 0.0316 µM", "result": 102, "unit": "%"},
      {"measurement": "viability, T/C", "setting": "second compound 3.16 µM, first compound 0.1 µM", "result": 83.7, "unit": "%"},
      {"measurement": "viability, T/C", "setting": "second compound 3.16 µM, first compound 0.316 µM", "result": 77.8, "unit": "%"},
      {"measurement": "viability, T/C", "setting": "second compound 3.16 µM, first compound 1 µM", "result": 40.8, "unit": "%"},
      {"measurement": "viability, T/C", "setting": "second compound 3.16 µM, first compound 3.16 µM", "result": 45.6, "unit": "%"},
      {"measurement": "viability, T/C", "setting": "second compound 3.16 µM, first compound 10 µM", "result": 52.4, "unit": "%"},
      {"measurement": "viability, T/C", "setting": "second compound 10 µM, first compound 0.0316 µM", "result": 99.2, "unit": "%"},
      {"measurement": "viability, T/C", "setting": "second compound 10 µM, first compound 0.1 µM", "result": 94.1, "unit": "%"},
      {"measurement": "viability, T/C", "setting": "second compound 10 µM, first compound 0.316 µM", "result": 65.6, "unit": "%"},
      {"measurement": "viability, T/C", "setting": "second compound 10 µM, first compound 1 µM", "result": 50.8, "unit": "%"},
      {"measurement": "viability, T/C", "setting": "second compound 10 µM, first compound 3.16 µM", "result": 48.9, "unit": "%"},
      {"measurement": "viability, T/C", "setting": "second compound 10 µM, first compound 10 µM", "result": 33.8, "unit": "%"},
      {"measurement": "viability, T/C", "setting": "second compound 31.6 µM, first compound 0.0316 µM", "result": 99.3, "unit": "%"},
      {"measurement": "viability, T/C", "setting": "second compound 31.6 µM, first compound 0.1 µM", "result": 101, "unit": "%"},
      {"measurement": "viability, T/C", "setting": "second compound 31.6 µM, first compound 0.316 µM", "result": 68.1, "unit": "%"},
      {"measurement": "viability, T/C", "setting": "second compound 31.6 µM, first compound 1 µM", "result": 46.7, "unit": "%"},
      {"measurement": "viability, T/C", "setting": "second compound 31.6 µM, first compound 3.16 µM", "result": 30.4, "unit": "%"},
      {"measurement": "viability, T/C", "setting": "second compound 31.6 µM, first compound 10 µM", "result": 20.8, "unit": "%"},
      {"measurement": "viability, T/C", "setting": "second compound 100 µM, first compound 0.0316 µM", "result": 89.9, "unit": "%"},
      {"measurement": "viability, T/C", "setting": "second compound 100 µM, first compound 0.1 µM", "result": 81, "unit": "%"},
      {"measurement": "viability, T/C", "setting": "second compound 100 µM, first compound 0.316 µM", "result": 55, "unit": "%"},
      {"measurement": "viability, T/C", "setting": "second compound 100 µM, first compound 1 µM", "result": 36.5, "unit": "%"},
      {"measurement": "viability, T/C", "setting": "second compound 100 µM, first compound 3.16 µM", "result": 34, "unit": "%"},
      {"measurement": "viability, T/C", "setting": "second compound 100 µM, first compound 10 µM", "result": 17.3, "unit": "%"}
    ]}
  ]
}
